Data as given in US12083096B2, “Composition containing artesunate” (priority 2016, dated 2024).

Experiments:
[1] = cited from earlier work
[2] = time to dissolve artesunate powder in aqueous base solution to a clear solution; format: physicochemical; details: 10 mg of artesunate with 5% sodium bicarbonate solution
Description: The formulation was prepared prior to use by: providing artesunate; providing a solution comprising an organic base; and adding the solution to artesunate to provide the formulation. For example, the injectable formulation of the present disclosure was prepared by mixing artesunate with an aqueous solution containing a base described herein. Without wishing to be bound by theory, artesunate becomes negatively charged and dissolved. The formulation is freshly prepared immediately before use to minimize instability. In some embodiments, the injectable formulation is prepared by adding a solution of the disclosed bases to artesunate powder. The solution is about 5% glucose, normal saline, or about 5% glucose saline solution. Then the mixture is mixed gently to provide a clear injectable solution.
The formulation of the present disclosure is very convenient to prepare.

[3] = cited from earlier work; remark: listed apart in the source
[4] = in vivo; cited from earlier work

## C[C@H]1[C@H](OC(=O)CCC(=O)O)O[C@@H]2O[C@@]3(C)CC[C@H]4[C@H](C)CC[C@@H]1[C@@]24OO3 [artesunate]
[1]; organic solvents, such as acetone and methanol
  solubility in organic solvents: soluble
[1]; water
  solubility in water: slightly soluble
[2]
  time needed to dissolve: five to seven
[3]
  stability under basic and acidic conditions: unstable
[4]
  plasma half-life: about 20 minutes
